Experiments:
[1] = Selectivity index, ratio of CC50 for African green monkey Vero cells to EC50 for HAV HM175 infected in African green monkey Vero cells; type: toxicity; details: for selectivity ratio: Vero cells, read-out: Ratio CC50/EC50; for Ratio CC50/EC50: vero
[2] = Antiviral activity against HAV HM175 infected in African green monkey Vero cells assessed as inhibition of virus-induced cytopathic effect measured after 48 hrs by crystal violet staining based assay; type: functional, Human hepatitis A virus, Hu/Australia/HM175/1976
[3] = Antiviral activity against HAV HM175 infected in African green monkey Vero cells assessed as inhibition of virus-induced cytopathic effect at MNCC measured after 48 hrs by crystal violet staining based assay relative to control; type: functional, Human hepatitis A virus, Hu/Australia/HM175/1976
[4] = Cytotoxicity against African green monkey Vero cells measured after 48 hrs by crystal violet staining based colorimetric method; type: cell-based; details: chlorocebus sabaeus; for MNTC at 48 h: read-out: MNCC
[5] = Inhibition of HAV protease 3C expressed in Escherichia coli BL21(DE3) pLysS using Dabcyl-GLRTQSND (edans) G as substrate preincubated for 3 mins before enzyme addition by fluorescence method; design: species or system Hepatovirus A
Hepatovirus A [6] = assay: Inhibition of HAV protease 3C expressed in Escherichia coli BL21(DE3) pLysS at 0.1 uM using Dabcyl-GLRTQSND (edans) G as substrate preincubated for 3 mins before enzyme addition by fluorescence method relative to control
Hepatovirus A [7] = assay: Inhibition of HAV protease 3C expressed in Escherichia coli BL21(DE3) pLysS at 10 uM using Dabcyl-GLRTQSND (edans) G as substrate preincubated for 3 mins before enzyme addition by fluorescence method relative to control
Hepatovirus A [8] = assay: Inhibition of HAV protease 3C expressed in Escherichia coli BL21(DE3) pLysS at 100 uM using Dabcyl-GLRTQSND (edans) G as substrate preincubated for 3 mins before enzyme addition by fluorescence method relative to control
Hepatovirus A [9] = assay: Inhibition of HAV protease 3C expressed in Escherichia coli BL21(DE3) pLysS at 1 uM using Dabcyl-GLRTQSND (edans) G as substrate preincubated for 3 mins before enzyme addition by fluorescence method relative to control
[10] = Hepatovirus A, Hu/Australia/HM175/1976, Vero, 48 h, read-out: EC50

Row | SMILES | selectivity ratio [1] | EC50 [2, 10] [µM] | inhibition (INH) [3] [%] | CC50 at 48 h [4] | MNTC at 48 h [4] [µg/mL] | Ratio CC50/EC50 [1] | EC50 ([2]; vero) | IC50 [5] [µM] | inhibition (Hepatovirus A [6]) [%] | inhibition (Hepatovirus A [7]) [%] | inhibition (Hepatovirus A [8]) [%] | inhibition (Hepatovirus A [9]) [%]
1 | O=c1c2cc3ccccc3cc2nc(SCc2ccccc2)n1Cc1ccccc1 | 2.14 | 196 | 42.31 | 419 µM | 62.5 |  |  |  |  |  |  | 
2 | N#Cc1ccc(CSc2nc3cc4ccccc4cc3c(=O)n2CCc2ccccc2)cc1 |  |  | 2.88 | 86.3 µg/mL | 15.6 | Not Active | Not Active |  |  |  |  | 
3 | Cc1ccccc1CSc1nc2cc3ccccc3cc2c(=O)n1CCc1ccccc1 | 1.24 | 69.8 | 38.09 | 86.8 µM | 15.6 |  |  |  |  |  |  | 
4 | NC12CC3CC(CC(C3)C1)C2 [AMANTADINE] | 54.1 | 37.3 |  | 2020 µM |  |  |  | 37.2 |  |  |  | 
5 | N#Cc1ccccc1CSc1nc2cc3ccccc3cc2c(=O)n1Cc1ccccc1 | 1.23 | 43.7 | 39.58 | 53.5 µM | 7.8 |  |  |  |  |  |  | 
6 | NNc1nc2cc3ccccc3cc2c(=O)n1Cc1ccccc1 | 10.5 | 27.6 | 63.58 | 291 µM | 15.6 |  |  | 22.4 to 27.6 | 2.65 | 31.1 | 73.1 | 16.3
7 | O=c1c2cc3ccccc3cc2[nH]c(=S)n1Cc1ccccc1 | 4.91 | 36.7 | 67.18 | 180 µM | 15.6 |  |  | 3.3 to 36.7 | 9.85 | 64.8 | 86 | 37.5
8 | N#Cc1ccc(CSc2nc3cc4ccccc4cc3c(=O)n2Cc2ccccc2)cc1 | 1.35 | 152 | 23.82 | 206 µM | 31.2 |  |  |  |  |  |  | 
9 | O=c1c2cc3ccccc3cc2[nH]c(=S)n1CCc1ccccc1 | 3.06 | 128 | 46.36 | 391 µM | 31.2 |  |  |  |  |  |  | 
10 | O=c1c2cc3ccccc3cc2nc(SCc2ccc([N+](=O)[O-])cc2)n1Cc1ccccc1 |  |  | 0 | 48.2 µg/mL | 31.2 | Not Active | Not Active |  |  |  |  | 
11 | COc1cccc(CSc2nc3cc4ccccc4cc3c(=O)n2Cc2ccccc2)c1 | 1.22 | 67.8 | 24.48 | 82.7 µM | 7.8 |  |  |  |  |  |  | 
12 | O=c1c2cc3ccccc3cc2nc(SCc2ccc(Cl)cc2)n1CCc1ccccc1 | 1.75 | 57.9 | 41.26 | 101 µM | 15.6 |  |  |  |  |  |  | 
13 | N#Cc1cccc(CSc2nc3cc4ccccc4cc3c(=O)n2CCc2ccccc2)c1 | 1.25 | 130 | 23.49 | 163 µM | 31.2 |  |  |  |  |  |  | 
14 | Cc1cccc(CSc2nc3cc4ccccc4cc3c(=O)n2Cc2ccccc2)c1 | 5.61 | 90.3 | 58.76 | 506 µM | 62.5 |  |  |  |  |  |  | 
15 | C=CCSc1nc2cc3ccccc3cc2c(=O)n1CCc1ccccc1 |  |  | 3.54 | 164 µg/mL | 62.5 | Not Active | Not Active |  |  |  |  | 
16 | COc1cccc(CSc2nc3cc4ccccc4cc3c(=O)n2CCc2ccccc2)c1 | 2.36 | 61.7 | 54.32 | 145 µM | 31.2 |  |  |  |  |  |  | 
17 | NNc1nc2cc3ccccc3cc2c(=O)n1CCc1ccccc1 | 31.6 | 18 | 79.81 | 569 µM | 31.2 |  |  | 5.92 to 18 | 13.3 | 51.5 | 78.8 | 33
18 | N#Cc1cccc(CSc2nc3cc4ccccc4cc3c(=O)n2Cc2ccccc2)c1 | 2.32 | 164 | 41.94 | 380 µM | 62.5 |  |  |  |  |  |  | 
